Patent US8232298B2, “Inhibitors of the interaction between MDM2 and P53” (Janssen Pharmaceutica N.V., priority 2006, dated 2012)
Read-outs that look alike come from different tables or passages of the source.

How the values were obtained:
U87MG cells = experiment: Proliferation assay (MTT) on U87MG tumour cells; format: cell-based; conditions: Homo sapiens, U-87 MG
Procedure: Cellular activity of the compounds of formula (I) was determined on U87MG tumour cells using a colorimetric assay for cell toxicity or survival (see example C.2).
U87MG cells are human glioblastoma cells with wild type p53. In this cell line MDM2 tightly controls p53 expression.
All compounds tested were dissolved in DMSO and further dilutions were made in culture medium. Final DMSO concentrations never exceeded 0.1% (v/v) in cell proliferation assays. Controls contained U87MG cells and DMSO without compound and blanks contained DMSO but no cells.
U87MG cells were seeded in 96-well cell culture plates at 3000 cells/well/100 μl. 24 hours later, medium was changed and compound and/or solvent were added to a final volume of 200 μl. Following 4 days of incubation, medium was replaced by 200 μl fresh medium and cell growth was assessed using a MTT-based assay. Therefore, 25 μl of the MTT solution (0.5% MTT research grade from Serva in phosphate-buffered saline ) was added to each well and the cells were further incubated for 2 hours at 37° C. The medium was then carefully aspirated and the blue MTT-formazan product was dissolved by adding to each well 25 μl 0.1M glycin and 100 μl DMSO. The plates were shaken for another 10 min on a micro plate shaker before reading absorbance at 540 nm by a Biorad micro plate reader.
Within an experiment, the results for each experimental condition are the mean of 3 replicate wells. For initial screening purposes, compounds were tested at a single fixed concentration of 10^−5 M. For active compounds, the experiments were repeated to establish full concentration-response curves. For each experiment, controls (containing no drug) and a blank incubation (containing no cells or drugs) were run in parallel. The blank value was subtracted from all control and sample values. For each sample, the mean value for cell growth (in absorbance units) was expressed as a percentage of the mean value for cell growth of the control. When appropriate, IC50-values (concentration of the drug, needed to reduce cell growth to 50% of the control) were computed using probit analysis for graded data (Finney, D. J., Probit Analyses, 2nd Ed. Chapter 10, Graded Responses, Cambridge University Press, Cambridge 1962). Herein the effects of test compounds are expressed as pIC50 (the negative log value of the IC50-value) (see table F-2).
In some of the experiments the proliferation assay was adapted for and used in 384-well culture plates (see table F-2).

p53 in A2780 cells = experiment: p53 ELISA: capacity to preserve p53 in A2780 cells; format: cell-based; conditions: treated with compound for 16 hours, in M
Procedure: The capacity of the compounds to preserve p53 in A2780 cells was measured with the p53 enzyme linked immunosorbent assay. The p53 assay is a “sandwich” enzyme immunoassay employing two polyclonal antibodies. A polyclonal antibody, specific for the p53 protein, has been immobilized onto the surface of the plastic wells. Any p53 present in the sample to be assayed will bind to the capture antibody. The biotinylated detector polyclonal antibody also recognizes p53 protein, and will bind to any p53, which has been retained by the capture antibody. The detector antibody, in turn, is bond by horseradish peroxidase-conjugated streptavidin. The horseradish peroxidase catalyses the conversion of the chromogenic substrate o-phenylene diamine, the intensity of which is proportional to the amount of p53 protein bond to the plate. The colored reaction product is quantified using a spectrophotometer. Quantitation is achieved by the construction of a standard curve using known concentrations of purified recombinant HIS tagged p53 protein (see example C.1.).
A2780 cells (ATCC) were cultivated in RPMI 1640 supplemented with 10% fetal calf serum (FCS), 2 mM L-glutamine and gentamycin at 37° C. in a humidified incubator with 5% CO2.
A2780 cells were seeded at 20.000 cells per well in a 96 well plate, cultured for 24 hours and treated with compound for 16 hours at 37° C. in a humidified incubator. After incubation, the cells were washed once with phosphate-buffered saline and 30 μl, per well, low salt RIPA buffer (20 mM tris, pH7.0, 0.5 mM EDTA, 1% Nonidet P40, 0.5% DOC, 0.05% SDS, 1 mM PMSF, 1 μg/ml aprotinin and 0.5 μ/ml leupeptin) was added. Plates were placed on ice for 30 minutes to complete the lysis. p53 protein was detected in de lysates by using the sandwich ELISA, described below.
High binding polystyrene EIA/RIA 96 well plates (Costar 9018) were coated with the capture antibody pAb1801 (Abeam ab28-100) at a concentration of 1 μg/ml in coating buffer (0.1 M NaHCO3 pH8.2), 50 μl per well. The antibody was allowed to adhere overnight at 4° C. Coated plates were washed once with phosphate-buffered saline (PBS)/0.05% Tween 20 and 300 μl of blocking buffer (PBS, 1% bovine serum albumins (BSA)) was added, for an incubation period of 2 hours at room temperature. Dilutions of purified recombinant HIS tagged p53 protein, ranging from 3-200 ng/ml, were made in blocking buffer and used as standards.
Plates were washed twice with PBS/0.05% Tween 20 and blocking buffer or standards were added at 80 μl/well. To the standards, 20 μl of lysis buffer was added. The samples were added to the other wells at 20 μl lysate/well. After an overnight incubation at 4° C., plates were washed twice with PBS/0.05% Tween 20. Aliquots of 100 μl secondary polyclonal antibody p53(FL-393) (Tebubio, sc-6243) at a concentration of 1 μg/ml in blocking buffer were added to each well and allowed to adhere for 2 hours at room temperature. Plates were washed three times with PBS /0.05% Tween 20. Detection antibody anti-rabbit HRP (sc-2004, Tebubio) at 0.04 μg/ml in PBS/1% BSA was added and incubated for 1 hour at room temperature. Plates were washed three times with PBS/0.05% Tween 20 and 100 μl of substrate buffer was added (substrate buffer was prepared shortly before use by adding 1 tablet of 10 mg o-phenylene diamine (OPD) from Sigma and 125 μl 3% H2O2 to 25 ml OPD buffer: 35 mM citric acid, 66 mM Na2HPO4, pH5.6). After 5 to 10 minutes, colour reaction was stopped by adding 50 μl stop buffer (1 M H2SO4) per well. The absorbance at dual wavelengths of 490/655 nm was measured using a Biorad micro plate reader and the results were then analyzed.
For each experiment, controls (containing no drug) and a blank incubation (containing no cells or drugs) were run in parallel. The blank value was subtracted from all control and sample values. For each sample, the value of p53 (in absorbance units) was expressed as the percentage of the value for p53 present in the control. […]

[1] = 96 h, 96-well plates, 4 days of incubation, read-out: cell proliferation pIC50 96 well (converted)
[2] = 384-well culture plates, read-out: cell proliferation pIC50 384 well (converted)

Structure (SMILES)	melting point	IC50 (U87MG cells; [1])	IC50 (U87MG cells; [2])	A2780 p53-elisa LAD (lowest dose giving at least 140% of the value for p53 present in the control) (p53 in A2780 cells)
c1ccc2c(CCNc3ccc(Nc4ccncc4)cc3)coc2c1 [Compound 1]	152 to 154 °C	3.24 µM		1.0E−05
c1cnc2[nH]cc(CCNc3ccc(Nc4ccncc4)cc3)c2c1 [Compound 2]	182 °C	4.37 µM		3.0E−06
c1cc(Nc2ccc(NCCc3cnc4n3CCCC4)cc2)ccn1 [Compound 3]	256 °C	7.08 µM		3.0E−06

Now from value to compound, other results behind:

melting point	IC50 (U87MG cells; [1])	IC50 (U87MG cells; [2])	Structure (SMILES)	A2780 p53-elisa LAD (lowest dose giving at least 140% of the value for p53 present in the control) (p53 in A2780 cells)
		1.41 µM	c1cc(Nc2ccc(Nc3ccc4[nH]ccc4c3)cc2)ccn1 [Compound 4]	1.0E−06
184 to 186 °C	4.47 µM		COc1ccc2c(CCNc3ccc(Nc4ccncc4)cc3)coc2c1 [Compound 5]	1.0E−05
		> 10 µM	c1cc(Nc2ccc(NCCc3c[nH]c4sccc34)cc2)ccn1 [Compound 6]	1.0E−05
